Series [1] concerns the target HSP90 pools in JNPL3 (AD transgenic) mouse brain lysate. Put plainly: Fluorescence polarization (FP) competitive binding, cy3B-GM. As to conditions: read-out: FP relative affinity. Background: In fluorescence polarisation assays a small probe gives low polarisation when free and higher when bound to something large.
The conditions of series [2]: for PAMPA_BBB: PAMPA; for PAMPA-BBB: pH 7.4. In general terms: In PAMPA a lipid-coated filter parts donor from acceptor wells.
[3] abbreviates: displacement of cy3B-GM, 24 h, 4 °C, mean±SD, n=3.

Read-outs that look alike come from different tables or passages of the source.

As to `Nc1nc(F)nc2c1nc(Cc1cc3c(cc1I)OCO3)n2CCCN1CCN(CCO)CC1` [Compound 71], the EC50 in series [1] is 200 ± 5 nM. In series [2], the PAMPA_BBB is 4.7±0.5 and the PAMPA-BBB is reported as 4.7±0.5 10-6 cms-1.
In the case of `CC(C)NCCCn1c(Sc2cc3c(cc2-c2ccccc2)OCO3)nc2c(N)ncnc21` [Compound 9], the EC50 in series [1] (setting [3]) turned out to be 270 ± 10 nM. In series [2], the PAMPA_BBB came out at 9.9±0.5 and the PAMPA-BBB is recorded as 9.9±0.5 10-6 cms-1.
Regarding `CC(C)N(CCO)CCCn1c(Cc2cc3c(cc2I)OCO3)nc2c(N)nc(F)nc21` [Compound 69], the EC50 in series [1] turned out to be 61 ± 2 nM. Also, in series [2], the PAMPA_BBB turned out to be 1.1±0.1 and the PAMPA-BBB is 1.1±0.1 10-6 cms-1.
On to `CC(C)CNCCn1c(Sc2cc3c(cc2I)OCO3)nc2c(N)ncnc21` [Compound 84], for which the EC50 in series [1] (setting [3]) was found to be 14 ± 2 nM. In addition, in series [2], the PAMPA_BBB amounted to 8.9±0.5 and the PAMPA-BBB is on record as 8.9±0.5 10-6 cms-1.
For the compound `CC(C)NCCCn1c(Sc2cc3c(cc2C#N)OCO3)nc2c(N)ncnc21` [Compound 5], in series [1] (setting [3]), the EC50 amounted to 285 ± 13 nM.
For `CC(C)NCCCn1c(Sc2cc3c(cc2-c2ccc(C(C)(C)C)cc2)OCO3)nc2c(N)ncnc21` [Compound 11], the EC50 in series [1] (setting [3]) worked out at 2600 nM. In addition, in series [2], the PAMPA_BBB was 12.5±0.6 and the PAMPA-BBB was 12.5±0.6 10-6 cms-1.
With `CC(C)N(C)CCCn1c(Cc2cc3c(cc2I)OCO3)nc2c(N)nc(F)nc21` [Compound 60], the EC50 in series [1] (setting [3]) was found to be 39 ± 2 nM. In series [2], the PAMPA_BBB amounted to 5.8±1.3 and the PAMPA-BBB is given as 5.8±1.3 10-6 cms-1.
In the same order, the values of `CC(C)CNCCn1c(Sc2cc3c(cc2I)CCO3)nc2c(N)ncnc21` [Compound 86] are 5.5 ± 0.6 nM, 9.3±0.2 and 9.3±0.2 10-6 cms-1.
Consider `CC(C)NCCCn1c(Cc2cc(Br)c3c(c2)OCO3)nc2c(N)nc(F)nc21` [Compound 18], for which the EC50 in series [1] (setting [3]) turned out to be 191 ± 6 nM.
On the same count and under the same terms, the same measure for `CC(=O)c1cc2c(cc1Sc1nc3c(N)ncnc3n1CCCNC(C)C)OCO2` [Compound 6]: 103 ± 7 nM.
As to `Nc1nc(F)nc2c1nc(Cc1cc3c(cc1I)OCO3)n2CCCN1CCOCC1` [Compound 68], the EC50 in series [1] stood at 202 ± 7 nM. In addition, in series [2], the PAMPA_BBB worked out at 6.3±1.1 and the PAMPA-BBB is listed as 6.3±1.1 10-6 cms-1.
As for `CCN(CCCn1c(Cc2cc3c(cc2I)OCO3)nc2c(N)nc(F)nc21)C(C)C` [Compound 61], the EC50 in series [1] (setting [3]) stood at 30 ± 13 nM. In series [2], the PAMPA_BBB is 7.5±0.2 and the PAMPA-BBB was 7.5±0.2 10-6 cms-1.
For `CC(C)NCCCn1c(Sc2cc3c(cc2-c2ccc(N(C)C)cc2)OCO3)nc2c(N)ncnc21` [Compound 12], the EC50 in series [1] (setting [3]) amounted to 1390 nM. Besides, in series [2], the PAMPA_BBB is listed as 9.2±0.3 and the PAMPA-BBB was 9.2±0.3 10-6 cms-1.
The matching figures for `C=CCN(C)CCCn1c(Cc2cc3c(cc2I)OCO3)nc2c(N)nc(F)nc21` [Compound 65]: 44 ± 4 nM, 11.3±1.9 and 11.3±1.9 10-6 cms-1.
In the same order, the values of `CCCN(CCCn1c(Cc2cc3c(cc2I)OCO3)nc2c(N)nc(F)nc21)CC1CC1` [Compound 63] are 43 ± 4 nM, 8.4±2.1 and 8.4±2.1 10-6 cms-1.
Take `CC(C)NCCCn1c(Sc2cc3c(cc2Br)OCO3)nc2c(N)ncnc21` [Compound 3]: the EC50 in series [1] (setting [3]) turned out to be 122 ± 7 nM.
On to `C=Cc1cc2c(cc1Sc1nc3c(N)ncnc3n1CCCNC(C)C)OCO2` [Compound 7], for which the EC50 in series [1] (setting [3]) stood at 213 ± 7 nM. In series [2], the PAMPA_BBB was 6.1±0.1 and the PAMPA-BBB was 6.1±0.1 10-6 cms-1.
As for `CC(C)NCCCn1c(Cc2cc(I)c3c(c2)OCO3)nc2c(N)nc(F)nc21` [Compound 17], in series [1] (setting [3]), the EC50 was 85 ± 10 nM.
Still for that read-out and setting: to `CC(C)NCCCn1c(Cc2cc3c(cc2C#N)OCO3)nc2c(N)nc(F)nc21` [Compound 20] belongs 219 ± 19 nM.
Still for that read-out and setting: to `CC(C)NCCCn1c(Sc2cc3c(cc2I)OCCCO3)nc2c(N)ncnc21` [Compound 35] belongs 232 ± 10 nM.

The values are drawn from paper PMC8333062, “Chemical tools for epichaperome-mediated interactome dysfunctions of the central nervous system” (Nature Communications, 2021).
